Key:
[1] = Hepatotoxicity assay, HepG2 cell viability; format: cell-based; details: human, HepG2 hepatoma cells, 100 µM, read-out: HepG2 cell viability, % of the control
Procedure: The cell-based assays were used to investigate safety of the 5-HT6R ligands. […] During the same study, no effect for KMP-10 was observed. Additional safety tests with the hepatoma HepG2 cell line were performed here to estimate the compounds’ hepatotoxicity. A slight antiproliferative effect was observed only for DJ-18 at 100 µM, where the cell viability was decreased to up to ~83% of the control (Figure 9a).
Hepatotoxicity was estimated using the hepatoma HepG2 (ATCC® HB-8065^TM) cell line according to previously described protocols. The CellTiter 96® AQueous Non-Radioactive Cell Proliferation Assay was obtained from Promega (Madison, WI, USA). The compounds were investigated in quadruplicate at four concentrations (0.1–100 µM) for 72h. The antiproliferative drug DX was used as a positive control at a dose of 1 µM.

[2] = molecular target: 5-HT6; design: method as in PMID 30282913; details: radioligand binding, average of at least two independent experiments; read-out: Ki 5-HT6 [3H]-LSD; cited from earlier work
[3] = molecular target: D2; design: method as in PMID 30282913; details: radioligand binding, average of at least two independent experiments; read-out: Ki D2 [3H]-Raclopride; cited from earlier work
[4] = molecular target: 5-HT1A; design: method as in PMID 30282913; details: radioligand binding, average of at least two independent experiments; read-out: Ki 5-HT1A [3H]-8-OH-DPAT; cited from earlier work
[5] = molecular target: 5-HT7; design: method as in PMID 30282913; details: radioligand binding, average of at least two independent experiments; read-out: Ki 5-HT7 [3H]-5-CT; cited from earlier work
[6] = system: human embryonic kidney (HEK)-293 cells; design: method as in PMID 30282913; details: highest concentration 100 µM; cited from earlier work
[7] = Parallel artificial membrane permeability assay (PAMPA)
[8] = Metabolic stability and metabolic pathways in human liver microsomes
Procedure: The pharmacokinetic parameters of compounds were estimated by using human liver microsomes (HLMs) (Sigma-Aldrich, St. Louis, MO, USA). The t1/2 values and intrinsic clearances (CLint) were calculated with IS by using the protocols and formulas proposed by Obach [38]. […] VL was used as the reference unstable drug.

[9] = design: method as in PMID 29297106; details: earlier studies; cited from earlier work
[10] = molecular target: T1, CYP3A4 (Homo sapiens, UniProt P08684); design: method as in PMID 28212021; details: cited from earlier work
T1 construct: purchased Promega (Madison, WI, USA)
T1 sequence (P08684 whole entry): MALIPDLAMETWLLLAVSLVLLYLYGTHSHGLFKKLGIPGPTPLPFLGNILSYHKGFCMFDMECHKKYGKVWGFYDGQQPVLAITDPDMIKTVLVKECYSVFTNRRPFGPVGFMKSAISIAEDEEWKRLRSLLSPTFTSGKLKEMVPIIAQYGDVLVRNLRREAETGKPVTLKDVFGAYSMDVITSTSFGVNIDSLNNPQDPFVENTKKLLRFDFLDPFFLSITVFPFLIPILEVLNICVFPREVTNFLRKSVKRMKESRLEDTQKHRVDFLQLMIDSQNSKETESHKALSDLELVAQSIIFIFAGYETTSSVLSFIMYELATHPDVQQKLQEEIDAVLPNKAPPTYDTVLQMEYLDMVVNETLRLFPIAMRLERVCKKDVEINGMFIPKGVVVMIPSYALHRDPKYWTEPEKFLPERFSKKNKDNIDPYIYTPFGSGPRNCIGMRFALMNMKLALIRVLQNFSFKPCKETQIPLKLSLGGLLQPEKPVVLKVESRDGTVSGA

[11] = molecular target: T2, CYP2D6 (Homo sapiens, UniProt P10635); design: method as in PMID 28212021; details: cited from earlier work
T2 construct: purchased Promega (Madison, WI, USA)
T2 sequence (P10635 whole entry): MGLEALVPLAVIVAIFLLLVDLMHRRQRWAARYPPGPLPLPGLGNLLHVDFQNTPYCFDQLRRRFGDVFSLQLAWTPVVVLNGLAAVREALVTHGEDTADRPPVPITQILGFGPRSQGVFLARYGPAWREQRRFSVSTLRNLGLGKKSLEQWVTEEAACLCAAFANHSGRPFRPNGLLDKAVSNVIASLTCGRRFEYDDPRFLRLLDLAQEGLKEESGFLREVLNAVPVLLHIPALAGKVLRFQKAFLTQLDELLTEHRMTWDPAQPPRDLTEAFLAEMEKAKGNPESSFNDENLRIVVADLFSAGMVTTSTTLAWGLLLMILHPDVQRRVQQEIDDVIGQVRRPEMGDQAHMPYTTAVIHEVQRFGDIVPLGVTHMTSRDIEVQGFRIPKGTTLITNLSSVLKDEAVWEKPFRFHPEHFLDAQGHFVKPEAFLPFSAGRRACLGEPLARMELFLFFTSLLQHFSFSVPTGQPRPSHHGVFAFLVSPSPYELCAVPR

[12] = cited from earlier work

## CN1CCN(c2nc(N)nc(CN3C(=O)N(Cc4ccc(Cl)cc4)C(C)(C)C3=O)n2)CC1 [DJ-18]
[1]
  viability at 72 h, 100 µM: ~83%
[2]
  Ki: 0.127 µM
[3]
  Ki: 4.1 µM
[4]
  Ki: 23.3 µM
[5]
  Ki: 3.71 µM
[6]
  HEK-293 cells viability: statistically significant slight decrease
[7]; PAMPA, pH 7.4
  Papp at 5 h, 200 µM: 24.9 ± 0.45 ×10⁻⁶ cm/s
[7]; vs high-permeable reference caffeine
  PAMPA ability to penetrate the artificial membrane, fold stronger than caffeine: ~ 1.65
[8]; HLMs, 120 min incubation
  Metabolic Pathway, metabolite M1: demethylation
  Metabolic Pathway, metabolite M2: hydroxylation
  Metabolic Pathway, metabolite M3: demethylation and hydroxylation
  Metabolic Pathway, metabolite M4: hydroxylation
[8]; HLMs, reactions terminated at 5, 15, 30 and 45 min
  Intrinsic Clearance CLint: 4.32 mL/min/kg
[8]; HLMs, vs unstable reference verapamil
  t1/2, fold longer than verapamil: ~ 6 fold
[8]; human, liver microsomes, Half-Life t1/2, HLMs, reactions terminated at 5, 15, 30 and 45 min
  half-life: 3.12 h

## Fc1ccc2c(CCNCc3cccc(OCC(F)(F)C(F)F)c3)c[nH]c2c1 [Idalopirdine]
[9]
  Amount of visceral fat: significantly reduced
  Elevated glucose levels: compensated for elevated glucose levels

## CCn1cc(C(=O)O)c(=O)c2cc(F)c(N3CCNCC3)cc21 [Norfloxacin, norfloxacin, reference compound]
[7]; 200 µM in PBS pH 7.4, 5 h, room temperature, triplicate
  PAMPA Pe ± SD: 0.56 ± 0.13 10^−6 cm/s

## COc1ccc2c(c1)c(CN1CCN(C)CC1)cn2S(=O)(=O)c1ccccc1Br.CS(=O)(=O)O.CS(=O)(=O)O.O [SUVN-502, 1-[(2-Bromophenyl)sulfonyl]-5-methoxy-3-[(4-methyl-1-piperazinyl)methyl]-1H-indole Dimesylate Monohydrate]
[10]
  CYP3A4 inhibition: rather strong inhibitor
[11]
  CYP2D6 inhibition: weaker inhibitor
[12]; after oral administration
  BBB-penetration: good BBB (blood brain barrier)-penetration
[12]; pharmacokinetics in vivo
  t1/2 in vivo: 0.95 h
